Measurements: ChEMBL document CHEMBL5724914, “Linking interpersonal differences in gut microbiota composition and drug biotransformation activity” (2024)

Columns and labels:
[1] = human gut metagenome, 24 h, 2 µM
[2] = human gut metagenome, 24 h, 2 µM; remark: listed apart in the source
[3] = The drug is tested on WLS-170 corresponding to human gut metagenome with ENA study accession number: PRJEB37062 and ENA sample accession number: ERS12561762 for biotransformation under anaerobic condition. The drug concentrations were measured over 9 timepoints collected between 0 and 24 hours of incubation by liquid-chromatography-coupled mass spectrometry (LC–MS); details: 2 µM
[4] = The drug is tested on WLS-010 corresponding to human gut metagenome with ENA study accession number: PRJEB37062 and ENA sample accession number: ERS12561743 for biotransformation under anaerobic condition. The drug concentrations were measured over 9 timepoints collected between 0 and 24 hours of incubation by liquid-chromatography-coupled mass spectrometry (LC–MS); details: 2 µM
[5] = The drug is tested on WLS-027 corresponding to human gut metagenome with ENA study accession number: PRJEB37062 and ENA sample accession number: ERS12561744 for biotransformation under anaerobic condition. The drug concentrations were measured over 9 timepoints collected between 0 and 24 hours of incubation by liquid-chromatography-coupled mass spectrometry (LC–MS); details: 2 µM
[6] = human gut metagenome, 24 h, 2 µM; remark: listed apart in the source
[7] = human gut metagenome, 24 h, 2 µM; remark: listed apart in the source
[8] = human gut metagenome, 24 h, 2 µM; remark: listed apart in the source
[9] = human gut metagenome, 24 h, 2 µM; remark: listed apart in the source
[10] = The drug is tested on WLS-370 corresponding to human gut metagenome with ENA study accession number: PRJEB37062 and ENA sample accession number: ERS12561793 for biotransformation under anaerobic condition. The drug concentrations were measured over 9 timepoints collected between 0 and 24 hours of incubation by liquid-chromatography-coupled mass spectrometry (LC–MS); details: 2 µM
[11] = human gut metagenome, 24 h, 2 µM; remark: listed apart in the source
[12] = human gut metagenome, 24 h, 2 µM; remark: listed apart in the source
[13] = The drug is tested on WLS-082 corresponding to human gut metagenome with ENA study accession number: PRJEB37062 and ENA sample accession number: ERS12561751 for biotransformation under anaerobic condition. The drug concentrations were measured over 9 timepoints collected between 0 and 24 hours of incubation by liquid-chromatography-coupled mass spectrometry (LC–MS); details: 2 µM
Further: call rule not given here.

Which “Bacterial Biotransformation” value [1] does the source give for `CNCC[C@H](Oc1cccc2ccccc12)c1cccs1` [DULOXETINE] here?
The value was “Compound NOT metabolized”.

What about the “Bacterial Biotransformation” value [2] of the same compound?
The value was “Compound metabolized”.

What about the “Bacterial Biotransformation” value [3] of the same compound?
Its value is “Compound metabolized”.

And the “Bacterial Biotransformation” value [4]?
The value was “Compound NOT metabolized”.

What about the “Bacterial Biotransformation” value [5] of the same compound?
Its value is “Compound NOT metabolized”.

And the “Bacterial Biotransformation” value [6]?
The value was “Compound NOT metabolized”.

And the “Bacterial Biotransformation” value [7]?
Its value is “Compound NOT metabolized”.

What about the “Bacterial Biotransformation” value [8] of the same compound?
The value was “Compound NOT metabolized”.

And the “Bacterial Biotransformation” value [9]?
Its value is “Compound NOT metabolized”.

What about the “Bacterial Biotransformation” value [10] of the same compound?
Its value is “Compound NOT metabolized”.

What about the “Bacterial Biotransformation” value [11] of the same compound?
The value was “Compound NOT metabolized”.

What about the “Bacterial Biotransformation” value [12] of the same compound?
The value was “Compound NOT metabolized”.

And the “Bacterial Biotransformation” value [13]?
The value was “Compound NOT metabolized”.

What does the source list for `CC#CCn1c(N2CCC[C@@H](N)C2)nc2c1c(=O)n(Cc1nc(C)c3ccccc3n1)c(=O)n2C` [LINAGLIPTIN]?
Bacterial Biotransformation [1]: Compound NOT metabolized; Bacterial Biotransformation [2]: Compound NOT metabolized; Bacterial Biotransformation [3]: Compound NOT metabolized; Bacterial Biotransformation [4]: Compound NOT metabolized; Bacterial Biotransformation [6]: Compound NOT metabolized; Bacterial Biotransformation [7]: Compound NOT metabolized; Bacterial Biotransformation [8]: Compound NOT metabolized; Bacterial Biotransformation [9]: Compound NOT metabolized; Bacterial Biotransformation [10]: Compound NOT metabolized; Bacterial Biotransformation [12]: Compound NOT metabolized

With `CCOC(=O)C1=C(C)NC(C)=C(C(=O)OC)C1c1cccc([N+](=O)[O-])c1` (stereo unspecified) [NITRENDIPINE] as the compound, how does the “Bacterial Biotransformation” value [1] read?
The value was “Compound metabolized”.

What about the “Bacterial Biotransformation” value [2] of the same compound?
Its value is “Compound metabolized”.

What about the “Bacterial Biotransformation” value [3] of the same compound?
The value was “Compound metabolized”.

And the “Bacterial Biotransformation” value [4]?
The value was “Compound metabolized”.

And the “Bacterial Biotransformation” value [5]?
Its value is “Compound metabolized”.

And the “Bacterial Biotransformation” value [6]?
The value was “Compound metabolized”.

And the “Bacterial Biotransformation” value [7]?
Its value is “Compound metabolized”.

What about the “Bacterial Biotransformation” value [8] of the same compound?
The value was “Compound metabolized”.

And the “Bacterial Biotransformation” value [9]?
Its value is “Compound metabolized”.

What about the “Bacterial Biotransformation” value [10] of the same compound?
Its value is “Compound metabolized”.

What about the “Bacterial Biotransformation” value [11] of the same compound?
The value was “Compound metabolized”.

And the “Bacterial Biotransformation” value [12]?
The value was “Compound metabolized”.

What about the “Bacterial Biotransformation” value [13] of the same compound?
Its value is “Compound metabolized”.

Which “Bacterial Biotransformation” value [1] does the source give for `Cc1nc(Nc2ncc(C(=O)Nc3c(C)cccc3Cl)s2)cc(N2CCN(CCO)CC2)n1` [DASATINIB ANHYDROUS] here?
Its value is “Compound metabolized”.

What about the “Bacterial Biotransformation” value [2] of the same compound?
Its value is “Compound metabolized”.

What about the “Bacterial Biotransformation” value [3] of the same compound?
The value was “Compound metabolized”.

And the “Bacterial Biotransformation” value [4]?
The value was “Compound metabolized”.

What about the “Bacterial Biotransformation” value [5] of the same compound?
Its value is “Compound metabolized”.

And the “Bacterial Biotransformation” value [6]?
The value was “Compound metabolized”.

And the “Bacterial Biotransformation” value [7]?
Its value is “Compound metabolized”.

What about the “Bacterial Biotransformation” value [8] of the same compound?
The value was “Compound metabolized”.

And the “Bacterial Biotransformation” value [9]?
Its value is “Compound NOT metabolized”.

And the “Bacterial Biotransformation” value [10]?
Its value is “Compound metabolized”.

What about the “Bacterial Biotransformation” value [11] of the same compound?
Its value is “Compound metabolized”.

And the “Bacterial Biotransformation” value [12]?
Its value is “Compound NOT metabolized”.

What about the “Bacterial Biotransformation” value [13] of the same compound?
Its value is “Compound metabolized”.

With `N#Cc1ccc2c(c1)N(CCCN1CCC(O)CC1)c1ccccc1S2` [PERICIAZINE] as the compound, how does the “Bacterial Biotransformation” value [1] read?
Its value is “Compound NOT metabolized”.

And the “Bacterial Biotransformation” value [2]?
Its value is “Compound metabolized”.

What about the “Bacterial Biotransformation” value [3] of the same compound?
The value was “Compound metabolized”.

And the “Bacterial Biotransformation” value [4]?
The value was “Compound NOT metabolized”.

And the “Bacterial Biotransformation” value [5]?
The value was “Compound metabolized”.

What about the “Bacterial Biotransformation” value [6] of the same compound?
The value was “Compound metabolized”.

What about the “Bacterial Biotransformation” value [7] of the same compound?
Its value is “Compound NOT metabolized”.

What about the “Bacterial Biotransformation” value [8] of the same compound?
The value was “Compound NOT metabolized”.

What about the “Bacterial Biotransformation” value [9] of the same compound?
Its value is “Compound NOT metabolized”.

What about the “Bacterial Biotransformation” value [10] of the same compound?
The value was “Compound NOT metabolized”.

And the “Bacterial Biotransformation” value [11]?
Its value is “Compound NOT metabolized”.

And the “Bacterial Biotransformation” value [12]?
Its value is “Compound NOT metabolized”.

What about the “Bacterial Biotransformation” value [13] of the same compound?
The value was “Compound NOT metabolized”.

What does the source list for `COCCCC/C(=N\OCCN)c1ccc(C(F)(F)F)cc1.O=C(O)/C=C\C(=O)O` [FLUVOXAMINE MALEATE]?
Bacterial Biotransformation [1]: Compound metabolized; Bacterial Biotransformation [2]: Compound metabolized; Bacterial Biotransformation [3]: Compound NOT metabolized; Bacterial Biotransformation [4]: Compound NOT metabolized; Bacterial Biotransformation [5]: Compound NOT metabolized; Bacterial Biotransformation [6]: Compound NOT metabolized; Bacterial Biotransformation [7]: Compound metabolized; Bacterial Biotransformation [8]: Compound NOT metabolized; Bacterial Biotransformation [9]: Compound NOT metabolized; Bacterial Biotransformation [10]: Compound metabolized; Bacterial Biotransformation [11]: Compound NOT metabolized; Bacterial Biotransformation [12]: Compound NOT metabolized; Bacterial Biotransformation [13]: Compound NOT metabolized

Which “Bacterial Biotransformation” value [1] does the source give for `O=C([O-])C[C@H](O)C[C@H](O)/C=C/c1c(C2CC2)nc2ccccc2c1-c1ccc(F)cc1.O=C([O-])C[C@H](O)C[C@H](O)/C=C/c1c(C2CC2)nc2ccccc2c1-c1ccc(F)cc1.[Ca+2]` [PITAVASTATIN CALCIUM] here?
Its value is “Compound metabolized”.

What about the “Bacterial Biotransformation” value [2] of the same compound?
The value was “Compound NOT metabolized”.

And the “Bacterial Biotransformation” value [3]?
The value was “Compound NOT metabolized”.

And the “Bacterial Biotransformation” value [4]?
Its value is “Compound metabolized”.

What about the “Bacterial Biotransformation” value [5] of the same compound?
The value was “Compound metabolized”.

And the “Bacterial Biotransformation” value [6]?
The value was “Compound metabolized”.

What about the “Bacterial Biotransformation” value [7] of the same compound?
The value was “Compound NOT metabolized”.

What about the “Bacterial Biotransformation” value [8] of the same compound?
The value was “Compound metabolized”.

What about the “Bacterial Biotransformation” value [9] of the same compound?
The value was “Compound metabolized”.

What about the “Bacterial Biotransformation” value [10] of the same compound?
Its value is “Compound NOT metabolized”.

And the “Bacterial Biotransformation” value [11]?
The value was “Compound metabolized”.

What about the “Bacterial Biotransformation” value [12] of the same compound?
Its value is “Compound metabolized”.

And the “Bacterial Biotransformation” value [13]?
Its value is “Compound metabolized”.

For `CCCCC(=O)O[C@]1(C(=O)CO)[C@@H](C)C[C@H]2[C@@H]3CCC4=CC(=O)C=C[C@]4(C)[C@@]3(F)[C@@H](O)C[C@@]21C` [BETAMETHASONE VALERATE], which “Bacterial Biotransformation” value [1] is on record?
The value was “Compound metabolized”.

What about the “Bacterial Biotransformation” value [2] of the same compound?
Its value is “Compound metabolized”.

And the “Bacterial Biotransformation” value [3]?
The value was “Compound metabolized”.

What about the “Bacterial Biotransformation” value [4] of the same compound?
Its value is “Compound metabolized”.

And the “Bacterial Biotransformation” value [5]?
Its value is “Compound metabolized”.

And the “Bacterial Biotransformation” value [6]?
The value was “Compound NOT metabolized”.

What about the “Bacterial Biotransformation” value [7] of the same compound?
The value was “Compound NOT metabolized”.

And the “Bacterial Biotransformation” value [8]?
The value was “Compound NOT metabolized”.

And the “Bacterial Biotransformation” value [9]?
Its value is “Compound NOT metabolized”.

And the “Bacterial Biotransformation” value [10]?
Its value is “Compound NOT metabolized”.

And the “Bacterial Biotransformation” value [11]?
The value was “Compound metabolized”.

What about the “Bacterial Biotransformation” value [12] of the same compound?
The value was “Compound metabolized”.

And the “Bacterial Biotransformation” value [13]?
The value was “Compound metabolized”.
